# How the values were obtained:
# [1] = system: MERTK-expressing M2 macrophages; test: Macrophage viability assay, M2; conditions: 4 days of treatment in differentiating medium
# Experimental: Macrophage Viability Assay
# (§1) Peripheral blood mononuclear cells (PBMCs) were prepared from buffy coats of healthy donors by Histopaque-1077 (Sigma, 10771) density gradient centrifugation at 250×g at room temperature for 30 min. The intermediate layer containing PBMCs was collected and cells were washed with PBS/2 mM EDTA three times. Human monocytes were isolated from PBMCs by magnetic separation using human Classical Monocyte Isolation Kit (Miltenyi, 130-117-337) according to the manufacturer's instructions. Eighty thousand monocytes per well were cultured on 96-well plates in 150 μL PBMC medium (RPMI 1640 medium (Gibco, 11875093) containing 10% human AB serum, 10% FBS, L-glutamine, penicillin, and streptomycin) at 37° C. with 5% CO2. Monocytes were treated with GM-CSF (20 ng/mL; Biolegend, 766102) or M-CSF (50 ng/mL; Biolegend, 574804) for 8 days to differentiate to M1 or M2 macrophages, respectively. […] On day 4, 100 μL of CellTiter-Glo 2.0 Cell Viability Assay reagent (Promega, G9241) was added to each well, incubated for 10 mins and the luminescence signal was detected with a GloMax Discover Microplate Reader (Promega). The mean relative luminometer units (RLU) from duplicate wells were plotted with GraphPad Prism.
# [2] = system: MERTK-expressing M1 macrophages; test: Macrophage viability assay, M1; conditions: 4 days of treatment in differentiating medium
# Experimental: Macrophage Viability Assay
# as §1
compound,measurement,setting,value
"CCCCNc1ncc2c(-c3ccc(S(=O)(=O)N4CCOCC4)cc3)nn(C3CCC(O)CC3)c2n1 (centres unmarked) [UNC1062, reference compound]",viability of M2 macrophages (CellTiter-Glo 2.0),[1],neither z10 nor z10-MMAE nor z10-SN-38 nor the MERTK inhibitor UNC1062 affect the viability
same,viability of M1 macrophages (CellTiter-Glo 2.0),[2],neither z10 nor z10-MMAE nor z10-SN-38 nor the MERTK inhibitor UNC1062 affect the viability

# Reference: US11242407B2, “High-affinity anti-MERTK antibodies and uses thereof” (Rgenix, Inc., priority 2019, dated 2022)
